Results on ten compounds are retold here after patent US20240246984A1, “HETEROCYCLIC JAK INHIBITOR” (BEIJING INNOCARE PHARMA TECH CO., LTD., priority 2020, published 2024).

The target in test [1] is human recombinant JAK2 protein (Homo sapiens, UniProt O60674). The experiment in a line: JAK2 activity inhibition assay (HTRF kinase detection). It is filed as biochemical. The conditions noted are these: 2.5 μM ATP substrate solution. The protocol:
The effect of the compounds of the present invention on the activity of JAK2 was assessed by using an in vitro kinase detection assay.
The enzymatic activity of JAK2 was assessed by detecting the substrate phosphorylation level in a kinase reaction with a homogeneous time-resolved fluorescence (HTRF) kinase detection kit (Cisbio, 62TK0PEC). A reaction buffer contained an enzyme buffer (1×), 5 mM MgCl2, 1 mM DTT and 0.01% Brij35 from the kit; a human recombinant JAK2 protein (Carna Biosciences, 08-045) was diluted to a kinase reaction solution of 0.15 ng/μL with the reaction buffer; a substrate reaction solution contained 2.5 μM ATP and a biotin-labeled tyrosine kinase substrate diluted to 0.25 μM with the reaction buffer; a detection buffer contained 0.1 ng/μL Eu^3+ labeled cage antibody (Cisbio, 61T66KLB) and 12.5 nM streptavidin-labeled XL665 (Cisbio, 610SAXLB) in the reaction buffer; the compound was dissolved to 10 μM in DMSO, followed by a serial 4-fold dilution with DMSO to a minimum concentration of 0.061 nM. Each concentration was further diluted 40-fold with the reaction buffer. To a 384-well assay plate (Corning, 3674) were added 4 μL of the compound solutions having a series of concentrations and 2 μL of JAK2 kinase reaction solutions. After being mixed evenly, the mixtures were incubated at room temperature for 15 minutes, and then 4 μL of the substrate reaction solutions were added. The reaction mixtures were incubated at room temperature for 30 minutes. Then the reaction mixtures were added with 10 μL of detection solutions, mixed evenly, and allowed to stand at room temperature for 30 minutes. An Envision plate reader (Perkin Elmer) was then used to measure the progress of the reaction at wavelengths of 620 nm and 665 nm. The signal value (absorbance at 665 nm/absorbance at 620 nm) was positively correlated with the degree of substrate phosphorylation, therefore the kinase activity of JAK2 was detected. In this assay, the group without JAK2 kinase protein was the 100% inhibition group, and the group with JAK2 kinase protein but without the test compound was the 0% inhibition group. The compound inhibition curve was plotted using XLfit software and the IC50 of its inhibition was calculated.

For test [2], the target named is human recombinant TYK2 protein (Homo sapiens, UniProt P29597). As to the kind of experiment: TYK2 activity inhibition assay (HTRF kinase detection). It is filed as biochemical. The conditions noted are these: 11.25 μM ATP substrate solution. On the procedure:
The effect of the compounds of the present invention on the activity of TYK2 was assessed by using an in vitro kinase detection assay.
The enzymatic activity of TYK2 was assessed by detecting the substrate phosphorylation level in a kinase reaction with a homogeneous time-resolved fluorescence (HTRF) kinase detection kit (Cisbio, 62TK0PEC). A reaction buffer contained an enzyme buffer (1×), 5 mM MgCl2, 1 mM DTT and 0.01% Brij35 from the kit; a human recombinant TYK2 protein (Carna Biosciences, 08-147) was diluted to a kinase reaction solution of 0.25 ng/μL with the reaction buffer; a substrate reaction solution contained 11.25 μM ATP and a biotin-labeled tyrosine kinase substrate diluted to 0.5 μM with the reaction buffer; a detection buffer contained 0.1 ng/μL Eu^3+ labeled cage antibody (Cisbio, 61T66KLB) and 25 nM streptavidin-labeled XL665 (Cisbio, 610SAXLB) in the reaction buffer; the compound was dissolved to 10 μM in DMSO, followed by a serial 4-fold dilution with DMSO to a minimum concentration of 0.061 nM. Each concentration was further diluted 40-fold with the reaction buffer. To a 384-well assay plate (Corning, 3674) were added 4 μL of the compound solutions having a series of concentrations and 2 μL of kinase reaction solutions. After being mixed evenly, the mixtures were incubated at room temperature for 15 minutes, and then 4 μL of the substrate reaction solutions were added. The reaction mixtures were incubated at room temperature for 40 minutes. Then the reaction mixtures were added with 10 μL of detection solutions, mixed evenly, and allowed to stand at room temperature for 30 minutes. An Envision plate reader (Perkin Elmer) was then used to measure the progress of the reaction at wavelengths of 620 nm and 665 nm. The signal value (absorbance at 665 nm/absorbance at 620 nm) was positively correlated with the degree of substrate phosphorylation, therefore the kinase activity of TYK2 was detected. In this assay, the group without TYK2 kinase protein was the 100% inhibition group, and the group with TYK2 kinase protein but without the test compound was the 0% inhibition group. The compound inhibition curve was plotted using XLfit software and the IC50 of its inhibition was calculated.

By IC50 is commonly meant the concentration that gives 50% inhibition. On to `O=C(c1ccc(Nc2nc(C3CCNCC3)n3cc[nH]c(=O)c23)cc1)N1CCOCC1` [Compound 20, 1-((4-(morpholine-4-carbonyl)phenyl)amino)-3-(piperidin-4-yl)imidazo[1,5-a]pyrazin-8(7H)-one], for which the IC50 in test [1] turned out to be 53 nM; in test [2], 37 nM.

With `O=c1[nH]ccn2c(-c3c(F)cccc3F)nc(Nc3ccc(N4CCOCC4)cn3)c12` [Compound 9, 3-(2,6-difluorophenyl)-1-((5-morpholinopyridin-2-yl)amino)imidazo[1,5-a]pyrazin-8(7H)-one], the IC50 in test [1] came out at 13 nM; in test [2], 7 nM.

Regarding `CC(=O)N1CCC(c2nc(Nc3ccc(C(=O)N4CCOCC4)cc3)c3c(=O)[nH]ccn23)CC1` [Compound 19, 3-(1-acetylpiperidin-4-yl)-1-((4-(morpholine-4-carbonyl)phenyl)amino)imidazo[1,5-a]pyrazin-8(7H)-one], the results for the concentration for half-maximal inhibition (IC50) in test [1] and in test [2] were 14 nM and 23 nM, respectively.

As to `CN1CCN(C(=O)Cn2cc(Nc3nc(-c4c(F)cccc4F)n4c3C(=O)NCC4)cn2)CC1` [Compound 25, 3-(2,6-difluorophenyl)-1-((1-(2-(4-methylpiperazin-1-yl)-2-oxoethyl)-1H-pyrazol-4-yl)amino)-6,7-dihydroimidazo[1,5-a]pyrazin-8(5H)-one], the IC50 in test [1] is 39 nM; in test [2] it was 5.1 nM.

`O=C1NCCn2c(-c3c(F)cccc3F)nc(Nc3cnn(CC(=O)N4CCOCC4)c3)c21` [Compound 24, 3-(2,6-difluorophenyl)-1-((1-(2-morpholino-2-oxoethyl)-1H-pyrazol-4-yl)amino)-6,7-dihydroimidazo[1,5-a]pyrazin-8(5H)-one]: the half-inhibitory concentration (IC50) in test [1] came to 42 nM; in test [2], 3.2 nM.

As to `O=C(c1ccc(Nc2nc(C3CCN(C4CC4)CC3)n3cc[nH]c(=O)c23)cc1)N1CCOCC1` [Compound 21, 3-(1-cyclopropylpiperidin-4-yl)-1-((4-(morpholine-4-carbonyl)phenyl)amino)imidazo[1,5-a]pyrazin-8(7H)-one], the IC50 in test [1] and in test [2] was 12 nM throughout.

`Cn1ccc(Nc2nc(-c3c(F)cccc3F)n3cc[nH]c(=O)c23)n1` [Compound 7, 3-(2,6-difluorophenyl)-1-((1-methyl-1H-pyrazol-3-yl)amino)imidazo[1,5-a]pyrazin-8(7H)-one]: the IC50 in test [1] worked out at 62 nM; in test [2], 20 nM.

Consider `O=C1NCCn2c(-c3c(F)cccc3F)nc(Nc3cccc(C(=O)N4CCOCC4)c3)c21` [Compound 23, 3-(2,6-difluorophenyl)-1-((3-(morpholine-4-carbonyl)phenyl)amino)-6,7-dihydroimidazo[1,5-a]pyrazin-8(5H)-one], for which the IC50 in test [1] is 29 nM; in test [2], 50 nM.

Consider `Cn1ccc(Nc2nc(-c3c(F)cccc3F)n3c2C(=O)NCC3)n1` [Compound 8, 3-(2,6-difluorophenyl)-1-((1-methyl-1H-pyrazol-3-yl)amino)-6,7-dihydroimidazo[1,5-a]pyrazin-8(5H)-one], for which the IC50 in test [2] came out at 220 nM.

For `O=C(c1cccc(Nc2nc(-c3c(F)cccc3F)n3cc[nH]c(=O)c23)c1)N1CCOCC1` [Compound 22, 3-(2,6-difluorophenyl)-1-((3-(morpholine-4-carbonyl)phenyl)amino)imidazo[1,5-a]pyrazin-8(7H)-one], the figures for the IC50 in test [1] and in test [2] were 3.9 nM and 3.3 nM, respectively.
